Data published in patent publication US8598216B1 (Abbvie Inc., priority 2010, dated 2013).

How the values were obtained:
[1] = Intrinsic dissolution rate (IDR), compressed disc, USP II; assay type: physicochemical; conditions: 200 mL pH 6.8 phosphate buffer, paddle 100 rpm; FIG. 10
Experimental: Drug dissolution was measured using in USP II (Dissolution medium: 200 mL pH 6.8 phosphate buffer; Paddle speed: 100 rpm).

in vivo = conditions: dog
Experimental: A series of studies evaluated the effect of the bis-hydrochloride and bis-tosylate form on the ritonavir plasma concentrations following single 100 mg base doses in dogs. Each of the salts was evaluated in a single group of six dogs. The free base and the two salts were weighed into gelatin capsules at a dose of 100 mg base for dosing in the dogs. The dogs were fasted overnight prior to dosing, but were permitted free access to water. Approximately 30 minutes prior to dosing, the dogs received a 100 ug/kg subcutaneous dose of histamine. Plasma concentrations of parent drug were determined by HPLC-MS/MS. The following formulations/salts were evaluated: amorphous ritonavir bis-hydrochloride, amorphous ritonavir free base, and ritonavir bis-tosylate.

[2] = Dynamic moisture sorption (hygroscopicity); assay type: physicochemical; conditions: 90% RH, 25° C.; FIG. 7
Experimental: Hygroscopicity was evaluated on a dynamic moisture sorption balance (IGAsorp, Hiden Isochema, Warrington, UK) equipped with a data analyzer (IGAsorp, version 6.0.0.23, Hiden Isochema, Warrington UK). The balance was calibrated using standardized weights of 20, 50, and 100 mg. The RH probe was calibrated using standardized salt solutions of Lithium Chloride, Potassium Carbonate, and Sodium Chloride. During the experiment, the flow rate of nitrogen gas at different relative humidity was 250 mL/min. For anhydrous materials, the sample was first dried with dry nitrogen at 50° C. for two hours. The temperature was then set to 25° C. and the relative humidity was changed from 0% to 90% and back to 0% at 10% interval. For hydrated samples, the temperature was set to 25° C. and the relative humidity was changed at 10% interval from 30% to 90%, back to 10%, and then to 90%.

| Compound | intrinsic dissolution rate compared with ritonavir free base [1] | bioavailability compared with free base (in vivo) | AUC (in vivo; po, 100 mg, range) | Cmax (in vivo; po, 100 mg, peak concentration (Cmax), range) | moisture picked up [2] | AUC, range (in vivo; po, 100 mg) | peak concentration (Cmax), range (in vivo; po, 100 mg) |
| --- | --- | --- | --- | --- | --- | --- | --- |
| CC(C)c1nc(CN(C)C(=O)N[C@H](C(=O)N[C@@H](Cc2ccccc2)C[C@H](O)[C@H](Cc2ccccc2)NC(=O)OCc2cncs2)C(C)C)cs1.Cl.Cl [ritonavir bis-hydrochloride] | significantly faster dissolution rate than the ritonavir free base | greater bioavailability than the free base of ritonavir | 3160 to 20200 ng·h/mL | 1160 to 8390 ng/mL | about 20 % (w/w) |  |  |
| CC(C)c1nc(CN(C)C(=O)N[C@H](C(=O)N[C@@H](Cc2ccccc2)C[C@H](O)[C@H](Cc2ccccc2)NC(=O)OCc2cncs2)C(C)C)cs1 [ritonavir free base, (2S,3S,5S)-5-(N-(N-((N-methyl-N-((2-isopropyl-4-thiazolyl)-methyl)amino)carbonyl)-L-valinyl)amino)-2-(N-((5-thiazolyl)-methoxy-carbonyl)-amino)-1,6-diphenyl-3-hydroxyhexane, reference compound] |  |  | < 22 ng·h/mL |  |  |  |  |
| ritonavir bis-tosylate [reference compound] |  |  |  |  |  | 70 to 6420 ng·h/mL | 10 to 1620 ng/mL |
